Reference: the CheMixHub viscosity set
± gives the uncertainty stated by the source.

Experiment: xn = mol fraction of the nth substance listed

CN(C)P(=O)(N(C)C)N(C)C + CCO
303.15 K, 101.3 kPa
Conditions | viscosity [mPa·s]
x1 = 0.1007 | 1.255 ± 0.016
x1 = 0.2043 | 1.461 ± 0.019
x1 = 0.2959 | 1.627 ± 0.023
x1 = 0.3983 | 1.807 ± 0.028
x1 = 0.5079 | 2.005 ± 0.035
x1 = 0.5998 | 2.18 ± 0.041
x1 = 0.698 | 2.362 ± 0.049
x1 = 0.8012 | 2.557 ± 0.057
x1 = 0.9052 | 2.75 ± 0.067

Cc1cccc(C)n1 + CCO
298.15 K, 101 kPa
Conditions | viscosity [mPa·s]
x1 = 0.0454 | 1.15 ± 0.019
x1 = 0.09639 | 1.164 ± 0.019
x1 = 0.2211 | 1.202 ± 0.02
x1 = 0.3891 | 1.133 ± 0.019
x1 = 0.6241 | 1.02 ± 0.017
x1 = 0.8038 | 0.9686 ± 0.016

CC(=O)c1ccccc1 + CCOC(=O)OCC
viscosity [mPa·s], 101 kPa
Conditions | x2 = 0.0972 | x2 = 0.1515 | x2 = 0.2512 | x2 = 0.3615 | x2 = 0.4921 | x2 = 0.5705 | x2 = 0.6654 | x2 = 0.7584 | x2 = 0.8932 | x2 = 0.9425
303.15 K | 1.413 ± 0.037 | 1.358 ± 0.035 | – | 1.155 ± 0.031 | – | 0.977 ± 0.026 | 0.906 ± 0.024 | 0.843 ± 0.023 | 0.76 ± 0.021 | 0.732 ± 0.02
308.15 K | 1.286 ± 0.034 | 1.237 ± 0.032 | 1.15 ± 0.03 | 1.059 ± 0.028 | 0.958 ± 0.026 | 0.902 ± 0.024 | 0.839 ± 0.023 | 0.783 ± 0.021 | 0.708 ± 0.02 | 0.683 ± 0.019
313.15 K | 1.205 ± 0.032 | 1.159 ± 0.031 | 1.079 ± 0.029 | 0.995 ± 0.027 | 0.901 ± 0.024 | 0.85 ± 0.023 | 0.791 ± 0.022 | 0.738 ± 0.02 | 0.669 ± 0.019 | 0.646 ± 0.018

CC(=O)c1ccccc1 + CCOC(C)=O
viscosity [mPa·s], 100 kPa
Conditions | x1 = 0.0775 | x1 = 0.1574 | x1 = 0.2396 | x1 = 0.3244 | x1 = 0.4119 | x1 = 0.5021 | x1 = 0.5953 | x1 = 0.6915 | x1 = 0.7909 | x1 = 0.8937
303.15 K | 0.4772 ± 0.0034 | 0.5756 ± 0.004 | 0.6734 ± 0.0045 | 0.7711 ± 0.005 | 0.8688 ± 0.0056 | 0.9666 ± 0.0061 | 1.064 ± 0.0067 | 1.162 ± 0.0072 | 1.26 ± 0.0077 | 1.358 ± 0.0083
313.15 K | 0.424 ± 0.0031 | 0.5047 ± 0.0036 | 0.5856 ± 0.004 | 0.6665 ± 0.0045 | 0.7474 ± 0.0049 | 0.8284 ± 0.0054 | 0.9093 ± 0.0058 | 0.9902 ± 0.0063 | 1.071 ± 0.0067 | 1.152 ± 0.0072
323.15 K | 0.374 ± 0.0028 | 0.4427 ± 0.0032 | 0.5114 ± 0.0036 | 0.5801 ± 0.004 | 0.6488 ± 0.0044 | 0.7175 ± 0.0048 | 0.7862 ± 0.0051 | 0.8549 ± 0.0055 | 0.9236 ± 0.0059 | 0.9923 ± 0.0063

O=S(Cl)Cl + CCOC(C)=O
298.15 K, 101 kPa
Conditions | viscosity [mPa·s]
x1 = 0.225 | 0.4911 ± 0.013
x1 = 0.316 | 0.5174 ± 0.013
x1 = 0.534 | 0.5759 ± 0.015
x1 = 0.7 | 0.6117 ± 0.016
x1 = 0.83 | 0.6177 ± 0.016
